Data on 29 compounds can be found in patent publication US12084420B2, “Indoline compounds for inhibiting KIF18A” (Volastra Therapeutics, Inc., priority 2021, dated 2024).

Chain of hKIF18A (1-374) (Q8NI77 whole entry, looked up): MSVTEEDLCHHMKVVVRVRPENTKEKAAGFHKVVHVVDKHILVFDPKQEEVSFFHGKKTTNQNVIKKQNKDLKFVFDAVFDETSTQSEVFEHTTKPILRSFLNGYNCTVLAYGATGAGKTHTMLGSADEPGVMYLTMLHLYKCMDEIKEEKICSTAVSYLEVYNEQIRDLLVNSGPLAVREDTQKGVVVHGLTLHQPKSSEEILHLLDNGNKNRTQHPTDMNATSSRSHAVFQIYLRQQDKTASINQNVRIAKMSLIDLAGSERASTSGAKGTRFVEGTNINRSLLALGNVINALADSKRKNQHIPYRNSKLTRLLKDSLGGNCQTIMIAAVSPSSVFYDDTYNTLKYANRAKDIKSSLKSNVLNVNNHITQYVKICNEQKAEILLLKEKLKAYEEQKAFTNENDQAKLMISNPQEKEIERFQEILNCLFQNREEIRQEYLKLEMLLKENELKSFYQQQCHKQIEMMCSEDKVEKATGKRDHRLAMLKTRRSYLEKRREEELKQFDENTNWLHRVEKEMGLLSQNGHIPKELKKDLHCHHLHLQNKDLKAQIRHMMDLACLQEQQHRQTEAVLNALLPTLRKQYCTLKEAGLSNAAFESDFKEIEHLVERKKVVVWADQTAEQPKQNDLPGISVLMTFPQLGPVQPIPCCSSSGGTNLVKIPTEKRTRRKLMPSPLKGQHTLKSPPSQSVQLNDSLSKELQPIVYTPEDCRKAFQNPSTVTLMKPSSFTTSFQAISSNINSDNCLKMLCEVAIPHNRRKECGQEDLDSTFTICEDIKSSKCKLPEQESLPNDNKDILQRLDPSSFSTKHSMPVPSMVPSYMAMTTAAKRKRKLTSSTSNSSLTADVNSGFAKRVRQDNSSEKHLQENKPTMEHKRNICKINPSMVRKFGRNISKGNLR
Chain of hKIF18A (1-374) (Q2XVP4 whole entry partner, looked up): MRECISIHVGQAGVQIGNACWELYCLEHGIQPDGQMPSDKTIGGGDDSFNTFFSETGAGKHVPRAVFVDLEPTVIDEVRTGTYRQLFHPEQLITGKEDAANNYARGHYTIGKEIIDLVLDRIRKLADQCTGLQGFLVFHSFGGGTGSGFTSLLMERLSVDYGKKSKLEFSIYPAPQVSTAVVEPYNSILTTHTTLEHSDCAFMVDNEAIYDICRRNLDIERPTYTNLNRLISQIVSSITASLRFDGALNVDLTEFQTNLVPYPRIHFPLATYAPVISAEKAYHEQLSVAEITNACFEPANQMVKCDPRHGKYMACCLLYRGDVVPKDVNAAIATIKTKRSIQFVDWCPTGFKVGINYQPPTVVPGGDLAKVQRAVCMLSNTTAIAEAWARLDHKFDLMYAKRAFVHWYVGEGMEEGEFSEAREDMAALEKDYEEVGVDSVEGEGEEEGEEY
Chain of hKIF18A (1-374) (P02554 whole entry partner, looked up): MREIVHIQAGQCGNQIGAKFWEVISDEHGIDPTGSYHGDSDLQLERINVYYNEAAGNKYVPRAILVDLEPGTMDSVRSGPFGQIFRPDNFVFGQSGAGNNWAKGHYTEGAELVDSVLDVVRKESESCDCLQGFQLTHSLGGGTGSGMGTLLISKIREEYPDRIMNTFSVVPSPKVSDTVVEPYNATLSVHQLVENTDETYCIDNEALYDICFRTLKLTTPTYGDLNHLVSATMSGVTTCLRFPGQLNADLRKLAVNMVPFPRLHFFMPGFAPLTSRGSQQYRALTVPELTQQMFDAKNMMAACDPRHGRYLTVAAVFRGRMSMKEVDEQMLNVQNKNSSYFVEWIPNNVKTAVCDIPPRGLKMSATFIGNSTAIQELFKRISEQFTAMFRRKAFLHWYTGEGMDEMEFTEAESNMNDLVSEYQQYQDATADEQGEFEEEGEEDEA

This assay concerns the target hKIF18A (1-374) (Homo sapiens (Human), UniProt Q8NI77). Kind of assay: Inhibition of KIF18A microtubule-dependent ATPase activity (ADP-Glo). Conditions: KIF18A microtubule-dependent ATPase activity, biochemical assay. (ADP-Glo first removes unused ATP, then detects ADP through luciferase.)
Experimental: Biological Assays Inhibition of KIF18A Microtubule-Dependent ATPase Activity:
Test compounds were plated in a 3× dilution scheme in a 384-well plate. Assay buffer: 80 mM PIPES (pH 6.9), 1 mM MgCl2, 75 mM KCl, 1 mM EGTA, 1 mM DTT, 0.01% BSA, 0.005% Tween-20, 1 μM Taxol in H2O. […] After incubation at room temperature for 30 min, 2.5 μL of microtubule mix was added [0.2 mg/mL pre-formed microtubules, 2.0 mM ATP in assay buffer], the plate was centrifuged for 30 s and then incubated at 28° C. for 60 min. 5 μL of Promega® ADP-Glo Max R1 was added, the plate was centrifuged for 30 s, and the mixture incubated for 4 h at room temperature. 10 μL of Promega® ADP-Glo Max R2 was added, the plate centrifuged for 30 s, and incubated for 60 min at room temperature. Luminescence was measured with an Envision plate reader, and % Inhibition was calculated for each well as: ([max−min]−[test−min])/[max−min]. IC50 values were calculated from concentration vs. % Inhibition data via a four-parameter variable slope model.
A word on the IC50: it is the point on the concentration scale where inhibition reaches its midpoint. A high value points to a need for much substance. Turning to `CC(C)(C)NS(=O)(=O)c1cc(F)cc(C(=O)N2CC3(CCCCC3)c3cc(NS(C)(=O)=O)ccc32)c1` [Compound 95, N-(tert-butyl)-3-fluoro-5-(5′-(methylsulfonamido)spiro[cyclohexane-1,3′-indoline]-1′-carbonyl)benzenesulfonamide], the IC50 turned out to be 170 nM.
`CC(C)(C)NS(=O)(=O)c1cccc(C(=O)N2CC3(CCC4(CC4)CC3)c3cc(C(O)C(F)(F)F)ccc32)c1` (single isomer, unassigned) [Compound 338b] came in with an IC50 of 83 nM.
Under `COc1ccc(C(=O)N2CC3(CCC4(CC4)CC3)c3cc(NS(C)(=O)=O)ccc32)cc1S(=O)(=O)N1CC(F)(F)C1` [Compound 302, N-(1″-(3-((3,3-difluoroazetidin-1-yl)sulfonyl)-4-methoxybenzoyl)dispiro[cyclopropane-1,1′-cyclohexane-4′,3″-indolin]-5″- yl)methanesulfonamide] stands 19 nM; under `CC1(O)CN(S(=O)(=O)c2cccc(C(=O)N3CC4(CCC5(CC5)CC4)c4cc(NS(C)(=O)=O)ccc43)c2)C1` [Compound 255, N-(1″-(3-((3-hydroxy-3-methylazetidin-1-yl)sulfonyl)benzoyl)dispiro[cyclopropane-1,1′-cyclohexane-4′,3″-indolin]-5″- yl)methanesulfonamide], 63 nM; under `CCC(C)NS(=O)(=O)c1cccc(C(=O)N2CC3(CCC4(CC4)CC3)c3cc(NS(C)(=O)=O)ccc32)c1` (centres unmarked) [Compound 170, N-(sec-butyl)-3-(5″- (methylsulfonamido)dispiro[cyclopropane-1,1′-cyclohexane-4′,3″-indoline]-1″-carbonyl)benzenesulfonamide], 15 nM.
To `CS(=O)(=O)Nc1ccc2c(c1)[C@]1(CC[C@H](C(F)F)CC1)CN2C(=O)c1cccc(S(=O)(=O)NC23CC(C2)C3)c1` [Compound 336b] belongs 17 nM; to `CC1CN(S(=O)(=O)c2cccc(C(=O)N3CC4(CCC5(CC5)CC4)c4cc(NS(C)(=O)=O)ccc43)c2)C1` [Compound 260, N-(1″-(3-((3-methylazetidin-1-yl)sulfonyl)benzoyl)dispiro[cyclopropane-1,1′-cyclohexane-4′,3″-indolin]-5″- yl)methanesulfonamide], 12 nM.
Under `CC(C)(C)NS(=O)(=O)c1cc(C(=O)N2CC3(CCC(F)(F)CC3)c3cc(NS(C)(=O)=O)ccc32)cs1` [Compound 277, N-(tert-butyl)-4-(4,4-difluoro-5′-(methylsulfonamido)spiro[cyclohexane-1,3′-indoline]-1′-carbonyl)thiophene-2-sulfonamide] stands 41 nM.
In turn, `CCC1=CCC2(CC1)CN(C(=O)c1cccc(S(=O)(=O)NC(C)(C)C)c1)c1ccc(NS(C)(=O)=O)cc12` (centres unmarked) [Compound 31, N-(tert-butyl)-3-(4-ethyl-5′-(methylsulfonamido)spiro[cyclohexane-1,3′-indolin]-3-en-1′-carbonyl)benzenesulfonamide] came in with an IC50 of 39 nM.
Under `CC(C)(C)NS(=O)(=O)c1cc(C(=O)N2CC3(CCC4(CC4)CC3)c3cc(NS(=O)(=O)CCO)ccc32)cs1` [Compound 274, N-(tert-butyl)-4-(5″-((2-hydroxyethyl)sulfonamido)dispiro [cyclopropane-1,1′-cyclohexane-4′,3″- indoline]-1″-carbonyl)thiophene-2-sulfonamide] stands 6 nM; under `CS(=O)(=O)Nc1ccc2c(c1)C1(CCC3(CC3)CC1)CN2C(=O)c1cccc(S(=O)(=O)NC2CC23CC3)c1` (centres unmarked) [Compound 225, 3-(5″-(methylsulfonamido)dispiro [cyclopropane-1,1′-cyclohexane-4′,3″- indoline]-1″-carbonyl)-N-(spiro[2.2]pentan-1-yl)benzenesulfonamide], 7.5 nM.
On to `CC1CCC(NS(=O)(=O)c2cccc(C(=O)N3CC4(CCC5(CC5)CC4)c4cc(NS(C)(=O)=O)ccc43)c2)C1` (centres unmarked) [Compound 285, N-(3-methylcyclopentyl)-3-(5″- (methylsulfonamido)dispiro[cyclopropane-1,1′-cyclohexane-4′,3″-indoline]-1″-carbonyl)benzenesulfonamide], for which the midpoint of inhibition, the IC50, lay at 11 nM.
Under `CC(C)(C)NS(=O)(=O)c1cccc(C(=O)N2CC3(CCC4(CC4)CC3)c3cc(Br)ccc32)c1` [Compound 9, 3-(5″-bromodispiro[cyclopropane-1,1′-cyclohexane-4′,3″-indoline]-1″- carbonyl)-N-(tert-butyl)benzenesulfonamide] stands 1000 nM; under `CC(C)S(=O)(=O)c1cccc(C(=O)N2CC3(CCC4(CC4)CC3)c3cc(NS(C)(=O)=O)ccc32)c1` [Compound 326, N-(1″-(3-(isopropylsulfonyl)benzoyl)dispiro [cyclopropane-1,1′-cyclohexane-4′,3″- indolin]-5″-yl)methanesulfonamide], 50 nM; under `CS(=O)(=O)Nc1ccc2c(c1)C1(CCC3(CC3)CC1)CN2C(=O)c1cccc(S(=N)(=O)C2CCCC2)c1` (centres unmarked) [Compound 287, N-(1″-(3-(cyclopentanesulfonimidoyl)benzoyl)dispiro[cyclopropane-1,1′-cyclohexane-4′,3″-indolin]-5″- yl)methanesulfonamide], 17 nM.
To “N-(1-hydroxy-2-methylpropan-2-yl)-3- (5″- (methylsulfonamido)dispiro[cyclopropane- 1,1′-cyclohexane-4′,3″-indoline]- 1″-carbonyl)benzenesulfonamide [Compound 194]” belongs 50 nM.
Under `CC(C)(C)[C@H](O)c1ccc(C(=O)N2CC3(CCC4(CC4)CC3)c3cc(NS(C)(=O)=O)ccc32)o1` (single isomer, unassigned) [Compound 373b] stands 170 nM; under `CS(=O)(=O)Nc1ccc2c(c1)C1(CCC3(CC3)CC1)CN2C(=O)c1cccc(S(=O)(=O)NC2CC2)c1` [Compound 212, N-cyclopropyl-3-(5″- (methylsulfonamido)dispiro[cyclopropane-1,1′-cyclohexane-4′,3″-indoline]-1″-carbonyl)benzenesulfonamide], 12 nM; under `CS(=O)(=O)Nc1ccc2c(c1)C1(CCC3(CC3)CC1)CN2C(=O)c1cccc([S+]([O-])C2CCCC2)c1` (centres unmarked) [Compound 270, N-(1″-(3-(cyclopentylsulfinyl)benzoyl)dispiro [cyclopropane-1,1′-cyclohexane-4′,3″- indolin]-5″-yl)methanesulfonamide], 110 nM.
`CC1(C)CCN1S(=O)(=O)c1cccc(C(=O)N2CC3(CCC4(CC4)CC3)c3cc(NS(C)(=O)=O)ccc32)c1` [Compound 245, N-(1″-(3-((2,2-dimethylazetidin-1-yl)sulfonyl)benzoyl)dispiro[cyclopropane-1,1′-cyclohexane-4′,3″-indolin]-5″- yl)methanesulfonamide] registered an IC50 of 34 nM.
Under `CS(=O)(=O)Nc1ccc2c(c1)C1(CCC3(CC3)CC1)CN2C(=O)c1cccc(S(=O)(=O)NC2(CO)CC2)c1` [Compound 202, N-(1-(hydroxymethyl)cyclopropyl)-3-(5″- (methylsulfonamido)dispiro[cyclopropane-1,1′-cyclohexane-4′,3″-indoline]-1″-carbonyl)benzenesulfonamide] stands 53 nM; under `CN(C1CC(F)(F)C1)S(=O)(=O)c1cccc(C(=O)N2CC3(CCC4(CC4)CC3)c3cc(NS(C)(=O)=O)ccc32)c1` [Compound 356, N-(3,3-difluorocyclobutyl)-N-methyl-3-(5″- (methylsulfonamido)dispiro[cyclopropane-1,1′-cyclohexane-4′,3″-indoline]-1″-carbonyl)benzenesulfonamide], 51 nM.
To `CCS(=O)(=O)Nc1ccc2c(c1)C1(CCC3(CC3)CC1)CN2C(=O)c1ccc(F)c(S(=O)(=O)NC(C)(C)C)c1` [Compound 340, N-(tert-butyl)-5-(5″- (ethylsulfonamido)dispiro[cyclopropane-1,1′-cyclohexane-4′,3″-indoline]-1″- carbonyl)-2-fluorobenzenesulfonamide] belongs 18 nM.
Under `CS(=O)(=O)Nc1ccc2c(c1)C1(CCC3(CC3)CC1)CN2C(=O)c1ccc(S(=O)(=O)N2CC3(CCC3)C2)o1` [Compound 321, N-(1″-(5-((2-azaspiro[3.3]heptan-2-yl)sulfonyl)furan-2-carbonyl)dispiro[cyclopropane-1,1′-cyclohexane-4′,3″-indolin]-5″- yl)methanesulfonamide] stands 6.3 nM.
In turn, `CN(C)S(=O)(=O)c1cccc(C(=O)N2CC3(CCCCC3)c3cc(NS(C)(=O)=O)ccc32)c1` [Compound 42, N,N-dimethyl-3-(5′-(methylsulfonamido)spiro[cyclohexane-1,3′-indoline]-1′-carbonyl)benzenesulfonamide] registered an IC50 of 1300 nM.
Under `CS(=O)(=O)Nc1ccc2c(c1)C1(CCC3(CC3)CC1)CN2C(=O)c1cccc(CN2CCCO2)c1` [Compound 346, N-(1″-(3-(isoxazolidin-2-ylmethyl)benzoyl)dispiro[cyclopropane-1,1′-cyclohexane-4′,3″-indolin]-5″- yl)methanesulfonamide] stands 310 nM.
`CS(=O)(=O)Nc1ccc2c(c1)C1(CCC3(CC3)CC1)CN2C(=O)c1cccc(S(=O)(=O)NC2CCCCC2)c1` [Compound 180, N-cyclohexyl-3-(5″- (methylsulfonamido)dispiro[cyclopropane-1,1′-cyclohexane-4′,3″-indoline]-1″-carbonyl)benzenesulfonamide] displayed a half-inhibitory concentration (IC50) of 11 nM.
Under `CS(=O)(=O)Nc1ccc2c(c1)C1(CCC3(CC3)CC1)CN2C(=O)c1csc(S(=O)(=O)C2CCCC2)c1` [Compound 330, N-(1″-(5-(cyclopentylsulfonyl)thiophene-3-carbonyl)dispiro[cyclopropane-1,1′-cyclohexane-4′,3″-indolin]-5″- yl)methanesulfonamide] stands 12 nM; under `C=CCC1CC1NS(=O)(=O)c1cccc(C(=O)N2CC3(CCC4(CC4)CC3)c3cc(NS(C)(=O)=O)ccc32)c1` (centres unmarked) [Compound 235, N-(2-allylcyclopropyl)-3-(5″- (methylsulfonamido)dispiro[cyclopropane-1,1′-cyclohexane-4′,3″-indoline]-1″-carbonyl)benzenesulfonamide], 22 nM.
